The text below walks through data of PubChem BioAssay (NCI).

Each structure is given as a SMILES string.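 Test compounds were applied to cells in 96-well plates for 48 hours at 5 doses. TGI: concentration producing complete growth inhibition.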

Some test systems named below: DMS 114 small cell lung; DMS 273 small cell lung; KM20L2 colon; SNB-78 CNS; DLD-1 colon; HOP-18 NSCLC; XF 498 CNS; RXF-631 renal; MDA-N.
Common to all, as to experiment: NCI tumour cell line growth inhibition, 48 h

As for `CCCCCCCCCC(=O)OCC1OC(n2cc(F)c(=O)[nH]c2=O)C(N)C(OC(=O)CCCCCCCCC)C1O` (centres undefined), the TGI was determined as 29.6 µM with DMS 114 small cell lung, 38 µM with DMS 273 small cell lung, 34.8 µM in the assay with KM20L2 colon and 36.8 µM with SNB-78 CNS.
Take `COc1ccc(OC)c2cc(C3(C)SCCCS3)ccc12`: the TGI in the assay with DLD-1 colon, in the assay with DMS 114 small cell lung, in the assay with DMS 273 small cell lung, in the assay on HOP-18 NSCLC, in the assay with KM20L2 colon and with SNB-78 CNS was more than 100 µM throughout. In addition, the TGI with XF 498 CNS is more than 100 µM.
For `Cc1ccc2[nH]c(=O)c(C(C#N)c3ccccc3)nc2c1` (centres undefined), the TGI in the assay on DLD-1 colon is more than 100 µM; in the assay on DMS 273 small cell lung, more than 100 µM; with HOP-18 NSCLC it was more than 100 µM; in the assay with KM20L2 colon, 92.3 µM; in the assay with RXF-631 renal, more than 100 µM; in the assay on SNB-78 CNS, 80.1 µM.
As to `Cc1ccc(C2=NO[C@@H]3C(=O)N(c4ccc(Cc5ccc(N6C(=O)[C@H]7C(c8ccc(C)cc8)=NO[C@H]7C6=O)cc5)cc4)C(=O)[C@H]23)cc1`, the TGI in the assay on DLD-1 colon, in the assay on DMS 114 small cell lung, with DMS 273 small cell lung, with HOP-18 NSCLC, in the assay with KM20L2 colon and in the assay on RXF-631 renal was more than 100 µM in each case. Further, the TGI in the assay with SNB-78 CNS and with XF 498 CNS was more than 100 µM each time.
Molecule `Nc1nccc(Nc2ccc(S(N)(=O)=O)cc2)n1` had a TGI in the assay with MDA-N of more than 100 µM.
With `CCN(CC)c1ccc2c(c1)N=C1N=CC=CN1C2(c1ccc(N(C)C)cc1)c1ccc(N(C)C)cc1`, the TGI in the assay with DLD-1 colon is 17.9 µM; in the assay on DMS 273 small cell lung, more than 100 µM; with HOP-18 NSCLC, 12 µM; in the assay on KM20L2 colon, 10.2 µM; in the assay with RXF-631 renal it was 19.4 µM; in the assay on SNB-78 CNS, 39.5 µM. Further, the TGI in the assay with XF 498 CNS worked out at 12.6 µM.
On to `CC1C(=O)N(C)C2(CO)C(=O)O[C@H](C)C12O` (some centres undefined), for which the TGI in the assay with DLD-1 colon, in the assay with DMS 114 small cell lung, with HOP-18 NSCLC and in the assay with SNB-78 CNS was more than 100 µM throughout.
As for `O=C(O)/C(Cl)=C(\Cl)C(=O)Nc1ccccc1`, the TGI in the assay with DLD-1 colon, in the assay with DMS 273 small cell lung, in the assay with HOP-18 NSCLC, in the assay with KM20L2 colon, in the assay on RXF-631 renal and in the assay with SNB-78 CNS was more than 100 µM throughout.
For the molecule `O=C(C=Nc1ccccc1C(=O)[O-])c1cccs1.O=C(C=Nc1ccccc1C(=O)[O-])c1cccs1.[Cu+2]`, the TGI was more than 10 µM with DLD-1 colon and more than 100 µM in the assay on KM20L2 colon.
With `COC(=O)C(=O)C(C(=O)C(=O)Nc1cc([N+](=O)[O-])ccc1[N+](=O)[O-])c1nc2ccc(C(=O)c3ccccc3)cc2[nH]c1=O` (centres undefined), the TGI in the assay on DLD-1 colon was more than 100 µM; in the assay on DMS 114 small cell lung, 66.5 µM; in the assay on DMS 273 small cell lung, more than 100 µM; in the assay with HOP-18 NSCLC, 95.1 µM; with RXF-631 renal it was more than 100 µM; with SNB-78 CNS, 58.6 µM. Moreover, the TGI in the assay with XF 498 CNS came to 30.9 µM.
For the molecule `CSC(=S)NNC(=O)c1ccncc1`, the TGI in the assay on DLD-1 colon is 34.6 µM; in the assay with DMS 114 small cell lung, 28.6 µM; in the assay with DMS 273 small cell lung it was 46.1 µM; with HOP-18 NSCLC it was more than 100 µM; with KM20L2 colon, more than 100 µM; with RXF-631 renal, more than 100 µM. In addition, the values for the TGI with SNB-78 CNS and in the assay on XF 498 CNS were more than 100 µM and 50 µM, respectively.
For `CC(C)(O)[C@H]1[C@@H]2OC(=O)[C@H]1[C@]1(O)C[C@H]3OC34C(=O)O[C@H]2[C@@]41C` (some centres undefined) (tested in a mixture with another compound), the TGI in the assay on MDA-N is more than 100 µM.
On the same count and under the same terms, to `ON(CCc1ccccn1)Cc1ccccc1` belongs more than 100 µM.
On the same count and under the same terms, the same measure for `CCOC(=O)c1cc2ncccc2c2ccccc12`: more than 100 µM.
Regarding `CC1OC(O)CC(OC(=O)c2ccccc2)C1OC(=O)c1ccccc1` (centres undefined), the TGI in the assay with DLD-1 colon was 28.4 µM; with DMS 273 small cell lung, 29.5 µM; with HOP-18 NSCLC, 56.8 µM; with KM20L2 colon it was more than 100 µM; in the assay with XF 498 CNS, 34.6 µM.
For `COC(=O)C1=CC2OC1(C)C1(CC1)C2=O` (centres undefined), the TGI in the assay with DLD-1 colon came out at 37.3 µM; with KM20L2 colon, 36.6 µM; with XF 498 CNS, 28.1 µM.
Take `O=C1c2ccccc2C(=O)c2nc(-c3ccccc3)c(-c3ccccc3)nc21`: the TGI with DLD-1 colon, with DMS 114 small cell lung, in the assay with DMS 273 small cell lung, in the assay with HOP-18 NSCLC, in the assay on KM20L2 colon and with RXF-631 renal was more than 100 µM each time. Also, the TGI with SNB-78 CNS and in the assay with XF 498 CNS was more than 100 µM each time.
Consider `CC12CC3CC(C)(C1)CC(N=[N+]=[N-])(C3)C2`, for which the TGI in the assay with DLD-1 colon, in the assay with DMS 114 small cell lung, in the assay with DMS 273 small cell lung, in the assay with HOP-18 NSCLC, with SNB-78 CNS and in the assay with XF 498 CNS was more than 100 µM each time.
Regarding `COc1ccc2c(c1)[n+]([O-])c(-c1nc3ccccc3s1)c(N)[n+]2[O-]`, the TGI in the assay with DLD-1 colon, in the assay with DMS 273 small cell lung, with HOP-18 NSCLC, in the assay on KM20L2 colon, in the assay with RXF-631 renal and in the assay with SNB-78 CNS was more than 100 µM each time.
With `COC(=O)C#Cc1ccc([N+](=O)[O-])cc1`, the TGI in the assay on MDA-N stood at 8.27 µM.
Turning to `CNC1C(O)CC(OC2C/C=C(\C)C/C(C)=C/C=C/CCC(C)CNC(=O)/C=C/C=C/C2C)OC1C` (centres undefined), the TGI was determined as 1.45 µM with DLD-1 colon; 0.402 µM in the assay on DMS 114 small cell lung; 3.08 µM in the assay on HOP-18 NSCLC; 0.367 µM with MDA-N; 0.401 µM in the assay on RXF-631 renal; 3.43 µM in the assay with SNB-78 CNS. In the assay on XF 498 CNS, this molecule displayed a TGI of 3.76 µM.
